Test results from patent US20240336572A1, “SUBSTITUTED INDAZOLE PROPIONIC ACID DERIVATIVE COMPOUNDS AND USES THEREOF” (Pfizer Inc., priority 2023, published 2024).

Experiments:
AMPK 111 = molecular target: T1, AMPK 111 (Homo sapiens, UniProt Q13131+Q9Y478); assay: Biochemical profiling of AMPK activators by AMPK111 (HTRF/TR-FRET assay, SAMS peptide, PP2A dephosphorylation protection); conditions: for EC50: phosphorylated AMPK 111 (α1β1δ1 as printed), 11 point dilution, duplicate, 4-parameter fit; for Emax: phosphorylated AMPK 111, maximal activation
T1 construct: open reading frames encoding the full-length α1, β1 and δ1 subunits of human AMPK; made in house; host or cells: E. coli BL21-CodonPlus (DE3)-RIPL, pET-14b
Experimental: (§1) The biochemical EC50 (half-maximal concentration required for full activation) of compounds for the activation of AMPK was evaluated by HTRF assay using LANCE Ultra ULight-Acetyl-CoA Carboxylase (SAMS) peptide (commercially available, Perkin Elmer catalog TRF0133-M).
Following a fifteen-minute room temperature incubation, 5 μL of 30 nM protein phosphatase PP2A (isolation detailed above) diluted in the assay buffer was added to the plate, to dephosphorylate pThr172 of AMPK. […] The reaction was terminated after 60 minutes incubation at room temperature, by the addition of 5 μL of stop and detection cocktail, which consisted of 1× Perkin Elmer Lance buffer (Perkin Elmer catalog number CR97-100), 40 mM EDTA (Thermo Fisher catalog number BP2482-100), and 2 nM Eu-anti-Acetyl CoA Carboxylase [pSer70] antibody (Perkin Elmer, TRF0208-M).

AMPK 221 = molecular target: T2, AMPK 221 (Homo sapiens, UniProt O43741+P54646); assay: Biochemical profiling of AMPK activators by AMPK221 (HTRF/TR-FRET assay, SAMS peptide, PP2A dephosphorylation protection); conditions: for EC50: phosphorylated AMPK 221 (α2β2δ1), 11 point dilution, duplicate, 4-parameter fit; for Emax: phosphorylated AMPK 221, maximal activation
T2 construct: open reading frames encoding the full-length α2, β2 and δ1 subunits of human AMPK; made in house; host or cells: E. coli BL21-CodonPlus (DE3)-RIPL, pET-14b
Experimental: as §1
The reaction was terminated after 60 minutes incubation at room temperature by the addition of 5 μL of stop and detection cocktail, which consisted of 1× Perkin Elmer Lance buffer (Perkin Elmer catalog number CR97-100), 40 mM EDTA (Thermo Fisher catalog number BP2482-100), and 2 nM Eu-anti-Acetyl CoA Carboxylase [pSer70] antibody (Perkin Elmer, TRF0208-M). Plates were spun at 1000 RPM, 10 seconds.

T2 sequence (P54646 whole entry): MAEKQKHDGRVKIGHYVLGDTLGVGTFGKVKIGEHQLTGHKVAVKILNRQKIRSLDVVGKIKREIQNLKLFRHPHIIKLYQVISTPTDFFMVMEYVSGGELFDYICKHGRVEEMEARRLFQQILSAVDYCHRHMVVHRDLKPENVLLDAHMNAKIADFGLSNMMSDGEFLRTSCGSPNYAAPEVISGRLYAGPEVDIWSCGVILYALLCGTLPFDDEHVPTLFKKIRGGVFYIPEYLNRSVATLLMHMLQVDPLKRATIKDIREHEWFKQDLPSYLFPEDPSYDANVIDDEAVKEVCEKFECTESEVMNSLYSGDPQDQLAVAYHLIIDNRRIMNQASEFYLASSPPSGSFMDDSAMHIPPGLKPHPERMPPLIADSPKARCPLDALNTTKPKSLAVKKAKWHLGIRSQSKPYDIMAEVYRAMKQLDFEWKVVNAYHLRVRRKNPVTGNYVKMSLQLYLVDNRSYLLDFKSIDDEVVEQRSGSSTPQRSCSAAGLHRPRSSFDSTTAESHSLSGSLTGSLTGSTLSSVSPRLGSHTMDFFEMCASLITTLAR
T2 sequence (O43741 whole entry): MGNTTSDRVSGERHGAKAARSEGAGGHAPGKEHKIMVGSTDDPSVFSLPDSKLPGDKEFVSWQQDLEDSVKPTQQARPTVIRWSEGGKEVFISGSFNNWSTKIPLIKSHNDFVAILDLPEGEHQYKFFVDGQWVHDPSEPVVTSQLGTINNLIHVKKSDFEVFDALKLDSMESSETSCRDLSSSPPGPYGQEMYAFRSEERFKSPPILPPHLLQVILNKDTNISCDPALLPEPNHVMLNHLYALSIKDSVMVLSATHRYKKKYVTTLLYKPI
T2 sequence (P54619 whole entry partner): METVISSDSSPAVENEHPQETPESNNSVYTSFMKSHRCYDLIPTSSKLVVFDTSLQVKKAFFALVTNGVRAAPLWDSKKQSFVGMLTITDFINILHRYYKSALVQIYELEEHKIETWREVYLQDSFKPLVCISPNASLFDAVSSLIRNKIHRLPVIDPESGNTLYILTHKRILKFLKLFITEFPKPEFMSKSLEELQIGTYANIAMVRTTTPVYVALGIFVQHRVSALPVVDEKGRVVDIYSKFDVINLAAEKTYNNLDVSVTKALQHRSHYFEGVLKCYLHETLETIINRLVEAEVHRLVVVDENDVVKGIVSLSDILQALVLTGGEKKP
T1 sequence (Q13131 whole entry): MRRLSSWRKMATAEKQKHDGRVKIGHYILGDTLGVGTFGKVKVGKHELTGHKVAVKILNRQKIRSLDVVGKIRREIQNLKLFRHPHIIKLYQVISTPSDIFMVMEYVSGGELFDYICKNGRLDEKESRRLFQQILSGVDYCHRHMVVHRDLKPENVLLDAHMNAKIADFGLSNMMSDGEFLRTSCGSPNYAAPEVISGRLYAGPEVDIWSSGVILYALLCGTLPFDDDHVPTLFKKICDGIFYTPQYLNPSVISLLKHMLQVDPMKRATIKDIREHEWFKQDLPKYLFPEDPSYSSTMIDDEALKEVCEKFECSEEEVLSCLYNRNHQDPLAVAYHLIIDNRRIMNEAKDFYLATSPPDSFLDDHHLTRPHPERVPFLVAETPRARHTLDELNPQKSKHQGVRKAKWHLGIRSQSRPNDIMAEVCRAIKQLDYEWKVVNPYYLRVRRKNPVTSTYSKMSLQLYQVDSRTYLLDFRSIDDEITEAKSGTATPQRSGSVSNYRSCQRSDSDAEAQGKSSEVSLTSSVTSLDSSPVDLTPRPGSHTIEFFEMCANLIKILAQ
T1 sequence (Q9Y478 whole entry): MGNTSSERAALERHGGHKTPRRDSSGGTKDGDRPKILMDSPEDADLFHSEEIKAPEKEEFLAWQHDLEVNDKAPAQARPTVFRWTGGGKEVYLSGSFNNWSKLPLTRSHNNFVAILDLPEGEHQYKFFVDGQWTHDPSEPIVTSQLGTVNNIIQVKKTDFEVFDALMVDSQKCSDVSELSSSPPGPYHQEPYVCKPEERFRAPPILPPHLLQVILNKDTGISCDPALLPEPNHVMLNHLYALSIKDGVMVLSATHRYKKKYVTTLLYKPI
T1 sequence (P54619 whole entry partner): as the sequence (P54619 whole entry partner) above

With O=C(O)CCc1n[nH]c2cc(Cl)c(-c3ccc(-c4c(O)cccc4F)cc3)cc12 [Example 50, 3-(6-chloro-5-(2′-fluoro-6′-hydroxy-[1,1′-biphenyl]-4-yl)-1H-indazol-3-yl)propanoic acid] the EC50 (AMPK 111) was 153 nM, the Emax (AMPK 111) was 76% and the EC50 (AMPK 221) was 337 nM. It also gave an Emax (AMPK 221) of 55%.
NS(=O)(=O)c1ccc(-c2ccc(-c3cc4c(CCC(=O)O)n[nH]c4cc3Cl)cc2)cc1 [Example 40, 3-(6-chloro-5-(4′-sulfamoyl-[1,1′-biphenyl]-4-yl)-1H-indazol-3-yl)propanoic acid] was tested, and the EC50 (AMPK 111) was 92 nM, the Emax (AMPK 111) was 85% and the EC50 (AMPK 221) was 306 nM. The Emax (AMPK 221) was 68%.
For O=C(O)CCc1n[nH]c2cc(Cl)c(-c3ccc(-c4ccccc4O)cc3F)cc12 [Example 3, 3-(6-Chloro-5-(3-fluoro-2′-hydroxy-[1,1′-biphenyl]-4-yl)-1H-indazol-3-yl)propanoic acid], the EC50 (AMPK 111) was 189 nM, the Emax (AMPK 111) was 83% and the EC50 (AMPK 221) was 528 nM. It also gave an Emax (AMPK 221) of 61%.
COc1ccc(F)c(-c2ccc(-c3cc4c(CCC(=O)O)n[nH]c4cc3Cl)cc2)c1O [Example 26, 3-(6-chloro-5-(6′-fluoro-2′-hydroxy-3′-methoxy-[1,1′-biphenyl]-4-yl)-1H-indazol-3-yl)propanoic acid] gave an EC50 (AMPK 111) of 107 nM, an Emax (AMPK 111) of 77% and an EC50 (AMPK 221) of 114 nM. For the same compound, the Emax (AMPK 221) was 66%.
Work on CNC(=O)c1ccc(-c2ccc(-c3cc4c(CCC(=O)O)n[nH]c4cc3Cl)cc2)cc1 [Example 76, 3-(6-chloro-5-(4′-(methylcarbamoyl)-[1,1′-biphenyl]-4-yl)-1H-indazol-3-yl)propanoic acid] yielded an EC50 (AMPK 111) of 6 nM, an Emax (AMPK 111) of 67% and an EC50 (AMPK 221) of 13 nM. The Emax (AMPK 221) was 53%.
Compound CCOc1cccc(-c2ccc(-c3cc4c(CCC(=O)O)n[nH]c4cc3Cl)cc2)c1O [Example 25, 3-(6-chloro-5-(3′-ethoxy-2′-hydroxy-[1,1′-biphenyl]-4-yl)-1H-indazol-3-yl)propanoic acid] has an EC50 (AMPK 111) of 144 nM, an Emax (AMPK 111) of 71% and an EC50 (AMPK 221) of 107 nM. It also gave an Emax (AMPK 221) of 61%.
O=C(O)CCc1n[nH]c2cc(Cl)c(-c3ccc(-c4cccc(Cl)c4O)cc3)cc12 [Example 45, 3-(6-chloro-5-(3′-chloro-2′-hydroxy-[1,1′-biphenyl]-4-yl)-1H-indazol-3-yl)propanoic acid] gave an EC50 (AMPK 111) of 123 nM, an Emax (AMPK 111) of 82% and an EC50 (AMPK 221) of 263 nM. The Emax (AMPK 221) was 66%.
O=C(O)CCc1n[nH]c2cc(Cl)c(-c3ccc(-c4csc(CO)n4)cc3)cc12 [Example 66, 3-(6-chloro-5-(4-(2-(hydroxymethyl)thiazol-4-yl)phenyl)-1H-indazol-3-yl)propanoic acid] showed an EC50 (AMPK 111) of 365 nM, an Emax (AMPK 111) of 74% and an EC50 (AMPK 221) of 1090 nM. It also gave an Emax (AMPK 221) of 63%.
Compound CNC(=O)c1ccc(-c2ccc(-c3cc4c(CCC(=O)O)n[nH]c4cc3Cl)cc2)c(O)c1 [Example 23, 3-(6-chloro-5-(2′-hydroxy-4′-(methylcarbamoyl)-[1,1′-biphenyl]-4-yl)-1H-indazol-3-yl)propanoic acid] has an EC50 (AMPK 111) of 2 nM, an Emax (AMPK 111) of 71% and an EC50 (AMPK 221) of 5 nM. For the same compound, the Emax (AMPK 221) was 56%.
Work on COC(=O)c1ccc(-c2ccc(-c3cc4c(CCC(=O)O)n[nH]c4cc3Cl)cc2)c(O)c1 [Example 31, 3-(6-Chloro-5-(2′-hydroxy-4′-(methoxycarbonyl)-[1,1′-biphenyl]-4-yl)-1H-indazol-3-yl)propanoic acid] yielded an EC50 (AMPK 111) of 57 nM, an Emax (AMPK 111) of 84% and an EC50 (AMPK 221) of 190 nM. For the same compound, the Emax (AMPK 221) was 61%.
With O=C(O)CCc1n[nH]c2cc(Cl)c(-c3ccc(-c4ccccc4O)cc3)nc12 [Example 73, 3-(6-chloro-5-(2′-hydroxy-[1,1′-biphenyl]-4-yl)-1H-pyrazolo[4,3-b]pyridin-3-yl)propanoic acid] the EC50 (AMPK 111) was 26 nM, the Emax (AMPK 111) was 86% and the EC50 (AMPK 221) was 2110 nM. For the same compound, the Emax (AMPK 221) was 30%.
O=C(O)CCc1n[nH]c2cc(Cl)c(-c3ccc(-c4cnsc4)cc3)cc12 [Example 65, 3-(6-chloro-5-(4-(isothiazol-4-yl)phenyl)-1H-indazol-3-yl)propanoic acid] gave an EC50 (AMPK 111) of 263 nM, an Emax (AMPK 111) of 79% and an EC50 (AMPK 221) of 795 nM. The Emax (AMPK 221) was 58%.
